In ChEMBL document CHEMBL4813924, “Isolation and Pharmacological Characterization of Six Opioidergic Picralima nitida Alkaloids” (J Nat Prod, 2021):
Active and inactive are the calls of the source. The rule behind the calls is not given here.

How the values were obtained:
[1] = target: T1, Delta-type opioid receptor (Homo sapiens, UniProt P41143); test: Displacement of [3H]-DADLE from delta opioid receptor (unknown origin) expressed in HEK cells at 10 uM; assay type: cell-based; settings: filed as agonist
T1 sequence (P41143 whole entry): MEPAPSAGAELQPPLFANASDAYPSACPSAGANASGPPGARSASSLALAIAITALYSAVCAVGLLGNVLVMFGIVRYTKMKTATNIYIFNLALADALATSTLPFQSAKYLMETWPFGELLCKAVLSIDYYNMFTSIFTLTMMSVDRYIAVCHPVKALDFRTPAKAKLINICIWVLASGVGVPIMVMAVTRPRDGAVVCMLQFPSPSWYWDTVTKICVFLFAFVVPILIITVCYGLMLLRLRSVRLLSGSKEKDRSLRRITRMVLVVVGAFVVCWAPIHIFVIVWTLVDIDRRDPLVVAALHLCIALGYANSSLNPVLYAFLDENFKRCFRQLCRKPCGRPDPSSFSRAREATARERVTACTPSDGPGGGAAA

Mu-type opioid receptor [2] = target: Mu-type opioid receptor (Mus musculus, UniProt P42866); test: Agonist activity at mouse HA-tagged mu opioid receptor expressed in HEK293 cells assessed as inhibition of forskolin-induced cAMP production preincubated for 20 mins followed by forskolin stimulation and measured after 15 mins by Glo-sensor reagent based assay; assay type: functional, cell-based
Sequence of Mu-type opioid receptor (Mus musculus, UniProt P42866) (P42866 whole entry): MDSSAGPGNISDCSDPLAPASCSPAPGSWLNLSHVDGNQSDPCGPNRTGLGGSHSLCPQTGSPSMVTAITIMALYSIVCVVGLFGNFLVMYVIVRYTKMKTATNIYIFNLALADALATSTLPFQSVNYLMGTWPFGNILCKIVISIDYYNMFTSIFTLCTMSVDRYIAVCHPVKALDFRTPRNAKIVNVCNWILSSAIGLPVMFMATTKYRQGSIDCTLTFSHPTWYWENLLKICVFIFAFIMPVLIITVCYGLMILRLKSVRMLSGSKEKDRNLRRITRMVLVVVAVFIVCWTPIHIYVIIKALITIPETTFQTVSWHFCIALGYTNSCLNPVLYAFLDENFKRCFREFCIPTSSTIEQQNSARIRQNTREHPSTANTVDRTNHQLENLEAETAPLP

[3] = target: Kappa-type opioid receptor (Mus musculus) (UniProt P33534); test: Agonist activity at mouse FLAG-tagged kappa opioid receptor expressed in HEK293 cells assessed as inhibition of forskolin-induced cAMP production preincubated for 20 mins followed by forskolin stimulation and measured after 15 mins by Glo-sensor reagent based assay relative to U50488; assay type: functional, cell-based; parameters: scale not given: the % may be the effect or the level left; settings: filed as agonist
Sequence of Kappa-type opioid receptor (Mus musculus) (P33534 whole entry): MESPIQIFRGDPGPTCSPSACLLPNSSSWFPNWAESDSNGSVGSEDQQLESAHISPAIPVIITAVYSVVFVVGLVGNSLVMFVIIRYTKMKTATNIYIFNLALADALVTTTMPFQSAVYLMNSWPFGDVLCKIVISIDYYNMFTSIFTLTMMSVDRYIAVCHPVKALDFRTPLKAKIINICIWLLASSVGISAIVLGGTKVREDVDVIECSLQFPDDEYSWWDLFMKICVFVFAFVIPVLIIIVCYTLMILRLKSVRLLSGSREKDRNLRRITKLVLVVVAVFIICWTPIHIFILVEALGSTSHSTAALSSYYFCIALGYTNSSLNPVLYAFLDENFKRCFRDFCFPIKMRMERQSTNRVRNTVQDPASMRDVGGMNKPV

[4] = target: Delta-type opioid receptor (Mus musculus) (UniProt P32300); test: Agonist activity at mouse FLAG-tagged delta opioid receptor expressed in HEK293 cells assessed as inhibition of forskolin-induced cAMP production preincubated for 20 mins followed by forskolin stimulation and measured after 15 mins by Glo-sensor reagent based assay relative to Leu-Enk; assay type: functional, cell-based; parameters: scale not given: the % may be the effect or the level left; settings: filed as agonist
Sequence of Delta-type opioid receptor (Mus musculus) (P32300 whole entry): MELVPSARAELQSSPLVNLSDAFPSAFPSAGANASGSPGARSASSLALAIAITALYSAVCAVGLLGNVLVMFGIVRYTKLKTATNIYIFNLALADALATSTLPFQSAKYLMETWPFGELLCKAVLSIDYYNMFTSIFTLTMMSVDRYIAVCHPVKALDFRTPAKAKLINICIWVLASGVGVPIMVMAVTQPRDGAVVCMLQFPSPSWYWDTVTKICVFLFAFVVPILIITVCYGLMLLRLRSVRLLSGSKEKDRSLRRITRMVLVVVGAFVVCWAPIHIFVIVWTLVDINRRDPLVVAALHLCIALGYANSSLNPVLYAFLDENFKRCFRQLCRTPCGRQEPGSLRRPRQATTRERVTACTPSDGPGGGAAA

[5] = target: Sodium-dependent serotonin transporter (Homo sapiens) (UniProt P31645); test: Displacement of [3H]-citalopram from SERT (unknown origin) expressed in HEK cells at 10 uM relative to control; assay type: cell-based
Sequence of Sodium-dependent serotonin transporter (Homo sapiens) (P31645 whole entry, looked up): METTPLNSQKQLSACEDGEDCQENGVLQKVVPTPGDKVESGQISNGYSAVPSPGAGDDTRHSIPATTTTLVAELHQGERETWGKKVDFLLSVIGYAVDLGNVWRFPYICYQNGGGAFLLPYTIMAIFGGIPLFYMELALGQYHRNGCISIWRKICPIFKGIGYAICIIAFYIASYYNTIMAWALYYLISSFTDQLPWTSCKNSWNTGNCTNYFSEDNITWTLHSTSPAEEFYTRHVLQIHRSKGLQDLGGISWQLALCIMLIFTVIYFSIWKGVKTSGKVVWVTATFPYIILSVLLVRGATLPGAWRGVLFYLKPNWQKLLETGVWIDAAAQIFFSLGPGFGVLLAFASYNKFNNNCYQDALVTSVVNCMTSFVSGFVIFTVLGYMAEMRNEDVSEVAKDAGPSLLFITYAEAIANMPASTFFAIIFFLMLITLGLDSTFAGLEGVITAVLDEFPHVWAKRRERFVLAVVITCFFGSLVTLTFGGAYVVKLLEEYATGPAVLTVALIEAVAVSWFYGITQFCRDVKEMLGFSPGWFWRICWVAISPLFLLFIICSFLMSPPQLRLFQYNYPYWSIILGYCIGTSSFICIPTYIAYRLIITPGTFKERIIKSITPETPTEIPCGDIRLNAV

[6] = target: T2, Kappa-type opioid receptor (Homo sapiens, UniProt P41145); test: Displacement of [3H]-U69593 from human kappa opioid receptor expressed in U2OS cells by radioligand binding assay; assay type: cell-based
T2 sequence (P41145 whole entry): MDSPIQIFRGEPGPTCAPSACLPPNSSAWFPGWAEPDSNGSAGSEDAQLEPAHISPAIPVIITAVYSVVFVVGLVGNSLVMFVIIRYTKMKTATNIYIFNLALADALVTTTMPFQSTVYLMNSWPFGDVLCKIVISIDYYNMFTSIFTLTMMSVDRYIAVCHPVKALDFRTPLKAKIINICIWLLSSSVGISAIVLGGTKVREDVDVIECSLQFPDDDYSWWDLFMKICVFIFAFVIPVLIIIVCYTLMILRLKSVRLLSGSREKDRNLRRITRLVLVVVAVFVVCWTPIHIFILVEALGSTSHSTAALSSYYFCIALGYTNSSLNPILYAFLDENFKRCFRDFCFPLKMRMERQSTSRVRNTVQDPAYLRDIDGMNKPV

[7] = target: Mu-type opioid receptor (Mus musculus) (UniProt P42866); test: Agonist activity at mouse HA-tagged mu opioid receptor expressed in HEK293 cells assessed as inhibition of forskolin-induced cAMP production preincubated for 20 mins followed by forskolin stimulation and measured after 15 mins by Glo-sensor reagent based assay relative to DAMGO; assay type: functional, cell-based; parameters: scale not given: the % may be the effect or the level left; settings: filed as agonist
Sequence of Mu-type opioid receptor (Mus musculus) (P42866 whole entry): as the sequence (P42866 whole entry) above

[8] = target: Histamine H3 receptor (Homo sapiens) (UniProt Q9Y5N1); test: Displacement of [3H]-alpha-methylhistamine from histamine H3 receptor (unknown origin) expressed in Flp-In-293 cells at 10 uM relative to control; assay type: cell-based
Sequence of Histamine H3 receptor (Homo sapiens) (Q9Y5N1 whole entry): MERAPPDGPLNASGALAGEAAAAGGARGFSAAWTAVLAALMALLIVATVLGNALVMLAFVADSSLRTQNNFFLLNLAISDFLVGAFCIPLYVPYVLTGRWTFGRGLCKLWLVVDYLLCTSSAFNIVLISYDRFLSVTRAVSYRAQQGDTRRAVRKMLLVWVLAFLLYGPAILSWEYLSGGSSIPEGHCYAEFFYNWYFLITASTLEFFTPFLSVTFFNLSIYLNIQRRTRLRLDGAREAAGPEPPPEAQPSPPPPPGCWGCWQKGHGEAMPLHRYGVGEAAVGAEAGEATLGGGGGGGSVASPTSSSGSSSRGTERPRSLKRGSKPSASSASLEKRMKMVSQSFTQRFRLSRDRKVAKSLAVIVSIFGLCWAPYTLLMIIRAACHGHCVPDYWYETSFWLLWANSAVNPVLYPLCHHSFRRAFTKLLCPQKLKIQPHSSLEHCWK

D(1B) dopamine receptor [9] = target: T3, D(1B) dopamine receptor (Homo sapiens, UniProt P21918); test: Displacement of [3H]-SCH23390 from dopamine D5 receptor (unknown origin) expressed in HEK-293T cells at 10 uM; assay type: cell-based
T3 sequence (P21918 whole entry): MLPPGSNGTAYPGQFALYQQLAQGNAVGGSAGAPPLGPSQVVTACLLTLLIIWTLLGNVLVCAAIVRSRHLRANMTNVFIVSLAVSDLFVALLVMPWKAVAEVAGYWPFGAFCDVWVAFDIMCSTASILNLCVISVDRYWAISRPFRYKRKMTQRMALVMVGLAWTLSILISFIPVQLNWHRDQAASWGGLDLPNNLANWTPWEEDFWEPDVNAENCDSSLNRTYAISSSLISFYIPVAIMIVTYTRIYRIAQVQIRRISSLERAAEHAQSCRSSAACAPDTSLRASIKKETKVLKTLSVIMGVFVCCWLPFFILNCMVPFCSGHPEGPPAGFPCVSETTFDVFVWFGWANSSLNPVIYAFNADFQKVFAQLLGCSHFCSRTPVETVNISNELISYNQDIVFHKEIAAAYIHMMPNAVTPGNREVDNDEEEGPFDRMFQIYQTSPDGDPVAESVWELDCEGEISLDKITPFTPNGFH

[10] = target: Delta-type opioid receptor (Mus musculus, UniProt P32300); test: Agonist activity at mouse FLAG-tagged delta opioid receptor expressed in HEK293 cells assessed as inhibition of forskolin-induced cAMP production preincubated for 20 mins followed by forskolin stimulation and measured after 15 mins by Glo-sensor reagent based assay; assay type: functional, cell-based
Sequence of Delta-type opioid receptor (Mus musculus, UniProt P32300) (P32300 whole entry): as the sequence (P32300 whole entry) above

Mu-type opioid receptor [11] = target: T4, Mu-type opioid receptor (Homo sapiens, UniProt P35372); test: Displacement of [3H]-DAMGO from human mu opioid receptor expressed in CHO-K1 cells by radioligand binding assay; assay type: cell-based
T4 sequence (P35372 whole entry): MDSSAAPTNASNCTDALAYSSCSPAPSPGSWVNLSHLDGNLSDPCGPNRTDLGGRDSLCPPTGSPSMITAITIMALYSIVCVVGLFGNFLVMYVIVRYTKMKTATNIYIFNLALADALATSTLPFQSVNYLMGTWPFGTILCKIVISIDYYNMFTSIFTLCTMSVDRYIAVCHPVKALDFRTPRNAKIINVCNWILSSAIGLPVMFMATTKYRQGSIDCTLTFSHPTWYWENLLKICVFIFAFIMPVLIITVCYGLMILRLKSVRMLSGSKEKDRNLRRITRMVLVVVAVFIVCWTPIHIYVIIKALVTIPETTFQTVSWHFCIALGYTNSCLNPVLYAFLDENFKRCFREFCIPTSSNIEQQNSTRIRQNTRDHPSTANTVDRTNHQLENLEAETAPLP

Mu-type opioid receptor [12] = target: T4, Mu-type opioid receptor; test: Displacement of [3H]-DAMGO from mu opioid receptor (unknown origin) expressed in HEK cells at 10 uM; assay type: cell-based
[13] = target: T2, Kappa-type opioid receptor; test: Displacement of [3H]-U69593 from kappa opioid receptor (unknown origin) expressed in HEK cells at 10 uM; assay type: cell-based; settings: filed as agonist
[14] = target: T1, Delta-type opioid receptor; test: Displacement of [3H]-DPDPE from human delta opioid receptor expressed in CHO-K1 cells by radioligand binding assay; assay type: cell-based
D(1B) dopamine receptor [15] = target: T3, D(1B) dopamine receptor; test: Displacement of [3H]-SCH23390 from dopamine D5 receptor (unknown origin) expressed in HEK-293T cells assessed as inhibition constant; assay type: cell-based
[16] = target: Kappa-type opioid receptor (Mus musculus, UniProt P33534); test: Agonist activity at mouse FLAG-tagged kappa opioid receptor expressed in HEK293 cells assessed as inhibition of forskolin-induced cAMP production preincubated for 20 mins followed by forskolin stimulation and measured after 15 mins by Glo-sensor reagent based assay; assay type: functional, cell-based
Sequence of Kappa-type opioid receptor (Mus musculus, UniProt P33534) (P33534 whole entry): as the sequence (P33534 whole entry) above

[17] = target: T2, Kappa-type opioid receptor; test: Agonist activity at human kappa opioid receptor expressed in U2OS cells assessed as beta-arrestin2 recruitment incubated for 90 mins by PathHunter assay relative to U50488; assay type: functional, cell-based
Mus musculus [18] = test: Antinociceptive activity against C57Bl/6N mouse model of thermal-induced nociception at 30 mg/kg, sc measured at 30 mins by tail-flick test; assay type: functional, organism-based
Mus musculus [19] = test: Antinociceptive activity against C57Bl/6N mouse model of thermal-induced nociception at 3 mg/kg, sc measured at 110 mins by hot-plate test; assay type: functional, organism-based
Mus musculus [20] = test: Antinociceptive activity against C57Bl/6N mouse model of thermal-induced nociception at 10 mg/kg, sc measured at 50 mins by tail-flick test; assay type: functional, organism-based
[21] = target: T2, Kappa-type opioid receptor; test: Agonist activity at human kappa opioid receptor expressed in U2OS cells assessed as beta-arrestin2 recruitment incubated for 90 mins by PathHunter assay; assay type: functional, cell-based
Mus musculus [22] = test: Antinociceptive activity against C57Bl/6N mouse model of thermal-induced nociception at 6 mg/kg, sc measured at 30 mins by tail-flick test; assay type: functional, organism-based
Mus musculus [23] = test: Antinociceptive activity against C57Bl/6N mouse model of thermal-induced nociception at 6 mg/kg, sc measured at 30 mins by hot-plate test; assay type: functional, organism-based

C/C=C1/CN2CC[C@]34C(=Nc5ccccc53)[C@@H]2C[C@@H]1[C@@]4(COC(C)=O)C(=O)OC
inhibition [1]: Active
IC50 (Mu-type opioid receptor [2]): 18.7 µM
Activity [3]: 92%
Activity [4]: 90%
inhibition [5]: < 60%
Ki [6]: 1.11 µM
Activity [7]: 50%
inhibition [8]: < 60%
inhibition (D(1B) dopamine receptor [9]): Active
IC50 ([10]; read-out: IC50): 24.4 µM
Ki (Mu-type opioid receptor [11]): 30.7 µM
inhibition (Mu-type opioid receptor [12]): inactive
inhibition [13]: Active
Ki [14]: 60.3 µM
Ki (D(1B) dopamine receptor [15]): > 10 µM
IC50 [16]: 2.71 µM
Activity [17]: 30%

C/C=C1/CN2[C@@H]3C[C@@]45c6ccccc6N[C@]4(O3)[C@@H]2C[C@@H]1[C@@]5(COC(C)=O)C(=O)OC
inhibition [1]: Active
IC50 (Mu-type opioid receptor [2]): 45 µM
Activity [3]: 92%
inhibition [5]: < 60%
Ki [6]: 2.38 µM
inhibition [8]: < 60%
inhibition (D(1B) dopamine receptor [9]): Active
Ki (Mu-type opioid receptor [11]): 132 µM
inhibition (Mu-type opioid receptor [12]): inactive
inhibition [13]: Active
Ki [14]: 98.8 µM
Ki (D(1B) dopamine receptor [15]): > 10 µM
IC50 [16]: 1.97 µM

C/C=C1/CN2[C@H]3Cc4c([nH]c5ccccc45)[C@@H]2C[C@@H]1[C@]3(CO)C(=O)OC
Activity (Mus musculus [18]): Active
IC50 (Mu-type opioid receptor [2]): 3.14 µM
Activity [4]: 90%
Ki [6]: 14.2 µM
Activity [7]: 94%
IC50 ([10]; read-out: IC50): 15.4 µM
Ki (Mu-type opioid receptor [11]): 0.32 µM
Ki [14]: 15 µM
Activity (Mus musculus [19]): inactive
Activity (Mus musculus [20]): Active

C/C=C1/CN2CC[C@@]34c5ccccc5N(C)[C@]35OC[C@@]4(C(=O)OC)[C@H]1C[C@H]25
inhibition [5]: < 60%
inhibition [8]: < 60%
inhibition (D(1B) dopamine receptor [9]): Active
IC50 ([10]; read-out: IC50): 95.6 µM
Ki [14]: 8.37 µM
Ki (D(1B) dopamine receptor [15]): > 10 µM
IC50 [16]: 6.46 µM

C/C=C1/CN2CC[C@]34C(=C(C(=O)OC)[C@H]1C[C@H]23)Nc1ccccc14 [AKUAMMICINE]
EC50 [21]: 39.8 µM
inhibition [1]: Active
IC50 (Mu-type opioid receptor [2]): 8.24 µM
Activity [3]: 84%
Activity [4]: 60%
inhibition [5]: < 60%
Ki [6]: 0.089 µM
Activity [7]: 45%
inhibition [8]: < 60%
inhibition (D(1B) dopamine receptor [9]): Active
IC50 ([10]; read-out: IC50): 12.4 µM
IC50 ([10]; read-out: pIC50 (converted)): 12.6 µM
Ki (Mu-type opioid receptor [11]): 3.31 µM
inhibition (Mu-type opioid receptor [12]; filed as agonist): Active
inhibition [13]: Active
Ki [14]: 23.2 µM
Ki (D(1B) dopamine receptor [15]): > 10 µM
IC50 [16]: 0.24 µM
Activity ([17]; filed as agonist): 50%

CN1CC[C@]23c4c5ccc(O)c4O[C@H]2[C@@H](O)C=C[C@H]3[C@H]1C5
Activity (Mus musculus [22]): Active
Activity (Mus musculus [23]): Active

C/C=C1/CN2CC[C@@]34c5cc(O)ccc5N(C)[C@]35OC[C@@]4(C(=O)OC)[C@H]1C[C@H]25
inhibition [5]: < 60%
inhibition [8]: < 60%
inhibition (D(1B) dopamine receptor [9]): Active
IC50 ([10]; read-out: IC50): 20.3 µM
Ki [14]: 10.4 µM
Ki (D(1B) dopamine receptor [15]): > 10 µM
IC50 [16]: 0.073 µM
